Measured values published in US9133126B2, “Fluoroalkyl dibenzoazepinone compounds” (BRISTOL-MYERS SQUIBB COMPANY, priority 2012, dated 2015).

Assay: in vitro
Conditions: human, liver microsomes, pH 7.4

| SMILES | half-life at 0.5 μM [min] |
| --- | --- |
| CCC[C@H](C(N)=O)[C@@H](CCC(F)(F)F)C(=O)N[C@@H]1C(=O)Nc2ccccc2-c2ccccc21 [Example 2, (2R,3S)-N-((7S)-6-Oxo-6,7-dihydro-5H-dibenzo[b,d]azepin-7-yl)-3-propyl-2-(3,3,3-trifluoropropyl)succinamide] | ≥ 40 |
| NC(=O)[C@@H](CC1CC1)[C@@H](CCC(F)(F)F)C(=O)N[C@@H]1C(=O)Nc2ccccc2-c2ccccc21 [Example 3, (2R,3S)-3-(Cyclopropylmethyl)-N-((7S)-6-oxo-6,7-dihydro-5H-dibenzo[b,d]azepin-7-yl)-2-(3,3,3-trifluoropropyl)succinamide] | ≥ 40 |
| CCC[C@@H](C(=O)N[C@@H]1C(=O)Nc2ccccc2-c2ccccc21)[C@H](CCC(F)(F)F)C(N)=O [Example 4, (2R,3S)-N-((7S)-6-Oxo-6,7-dihydro-5H-dibenzo[b,d]azepin-7-yl)-2-propyl-3-(3,3,3-trifluoropropyl)succinamide] | ≥ 40 |
| NC(=O)[C@@H](CC1CC1)[C@@H](CCC(F)(F)F)C(=O)N[C@@H]1C(=O)Nc2c(F)cccc2-c2ccccc21 [Example 5, (2R,3S)-3-(Cyclopropylmethyl)-N-((7S)-4-fluoro-6-oxo-6,7-dihydro-5H-dibenzo[b,d]azepin-7-yl)-2-(3,3,3-trifluoropropyl)succinamide] | ≥ 40 |
| NC(=O)[C@@H](c1ccccc1)[C@@H](CCC(F)(F)F)C(=O)N[C@@H]1C(=O)Nc2ccccc2-c2ccccc21 [Example 6, (2R,3R)-N-((7S)-6-Oxo-6,7-dihydro-5H-dibenzo[b,d]azepin-7-yl)-3-phenyl-2-(3,3,3-trifluoropropyl)succinamide] | ≥ 40 |
| NC(=O)[C@@H](CC1CC(F)(F)C1)[C@@H](CCC(F)(F)F)C(=O)N[C@@H]1C(=O)Nc2ccccc2-c2ccccc21 [Example 7, (2R,3S)-3-((3,3-difluorocyclobutyl)methyl)-N-((7S)-6-oxo-6,7-dihydro-5H-dibenzo[b,d]azepin-7-yl)-2-(3,3,3-trifluoropropyl)succinamide] | ≥ 40 |

Continued, values first:

| half-life at 0.5 μM [min] | SMILES |
| --- | --- |
| ≥ 40 | NC(=O)[C@@H](CCC(F)(F)F)[C@@H](CCC(F)(F)F)C(=O)N[C@@H]1C(=O)Nc2c(Cl)cccc2-c2ccccc21 [Example 8, (2R,3S)-N-(4-Chloro-6-oxo-6,7-dihydro-5H-dibenzo[b,d]azepin-7-yl)-2,3-bis(3,3,3-trifluoropropyl)succinamide] |
| ≥ 40 | CCC[C@H](C(N)=O)[C@@H](CCC(F)(F)F)C(=O)N[C@@H]1C(=O)Nc2c(F)cccc2-c2ccccc21 [Example 9, (2R,3S)-N-(4-Fluoro-6-oxo-6,7-dihydro-5H-dibenzo[b,d]azepin-7-yl)-3-propyl-2-(3,3,3-trifluoropropyl)succinamide] |
| ≥ 40 | Cc1cccc2c1NC(=O)[C@@H](NC(=O)[C@H](CCC(F)(F)F)[C@H](CCC(F)(F)F)C(N)=O)c1cc(F)ccc1-2 [Example 10, (2R,3S)-N-((7S)-9-Fluoro-4-methyl-6-oxo-6,7-dihydro-5H-dibenzo[b,d]azepin-7-yl)-2,3-bis(3,3,3-trifluoropropyl)succinamide] |
| ≥ 40 | Cc1cccc2c1NC(=O)[C@@H](NC(=O)[C@H](CCC(F)(F)F)[C@H](CC1CC1)C(N)=O)c1cc(F)ccc1-2 [Example 11, (2R,3S)-3-(Cyclopropylmethyl)-N-((7S)-9-fluoro-4-methyl-6-oxo-6,7-dihydro-5H-dibenzo[b,d]azepin-7-yl)-2-(3,3,3-trifluoropropyl)succinamide] |
